From PubChem BioAssay AID330 (DTP/NCI, 2004)
Where “and” joins values, the source holds several entries; their conditions need not be identical. Equal entries are not always repeated. Toxic doses and inconclusive results are not listed. Rule for the calls: active = survival T/C of 150% or more; inactive = T/C below 125% in these data.

Tested on: P388 leukemia ip, CD2F1 mice, survival T/C
Experiment: NCI In Vivo Anticancer Drug Screen. Data for tumor model P388 Leukemia (intraperitoneal) in CD2F1 (CDF1) mice
Conditions: endpoint: median survival time, higher = longer survival
Procedure, shortened: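 Mice carrying the transplanted tumor received test compound or vehicle. Survival was recorded in each group, and the value is the treated-group measurement divided by that of the vehicle-treated control group.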

[1] = dose: 6.25 mg/kg/injection, schedule: Q01DX009 (ip), vehicle: saline with Tween-80
[2] = dose: 12.5 mg/kg/injection, schedule: Q04DX003 (ip), vehicle: saline with Tween-80
[3] = dose: 25.0 mg/kg/injection, schedule: Q01DX009 (ip), vehicle: saline
[4] = dose: 50.0 mg/kg/injection, schedule: Q01DX009 (ip), vehicle: saline
[5] = dose: 100.0 mg/kg/injection, schedule: Q01DX009 (ip), vehicle: saline
[6] = dose: 60.0 mg/kg/injection, schedule: Q01DX005 (ip), vehicle: saline with Tween-80
[7] = dose: 120.0 mg/kg/injection, schedule: Q01DX005 (ip), vehicle: saline with Tween-80
[8] = dose: 240.0 mg/kg/injection, schedule: Q01DX005 (ip), vehicle: saline with Tween-80
[9] = dose: 60.0 mg/kg/injection, schedule: Q01DX005 (ip), vehicle: Klucel (hydroxypropylcellulose) (HPC)
[10] = dose: 120.0 mg/kg/injection, schedule: Q01DX005 (ip), vehicle: Klucel (hydroxypropylcellulose) (HPC)
[11] = dose: 12.5 mg/kg/injection, schedule: Q01DX009 (ip), vehicle: saline with Tween-80
[12] = dose: 25.0 mg/kg/injection, schedule: Q01DX009 (ip), vehicle: saline with Tween-80
[13] = dose: 50.0 mg/kg/injection, schedule: Q01DX009 (ip), vehicle: saline with Tween-80
[14] = dose: 100.0 mg/kg/injection, schedule: Q01DX009 (ip), vehicle: saline with Tween-80
[15] = dose: 200.0 mg/kg/injection, schedule: Q01DX009 (ip), vehicle: saline with Tween-80
[16] = dose: 50.0 mg/kg/injection, schedule: Q01DX005 (ip), vehicle: saline with Tween-80
[17] = dose: 100.0 mg/kg/injection, schedule: Q01DX005 (ip), vehicle: saline with Tween-80
[18] = dose: 12.5 mg/kg/injection, schedule: Q01DX009 (ip), vehicle: Klucel (hydroxypropylcellulose) (HPC)
[19] = dose: 25.0 mg/kg/injection, schedule: Q01DX009 (ip), vehicle: Klucel (hydroxypropylcellulose) (HPC)
[20] = dose: 50.0 mg/kg/injection, schedule: Q01DX009 (ip), vehicle: Klucel (hydroxypropylcellulose) (HPC)
[21] = dose: 100.0 mg/kg/injection, schedule: Q04DX003 (ip), vehicle: saline with Tween-80
[22] = dose: 200.0 mg/kg/injection, schedule: Q01DX009 (ip), vehicle: saline
[23] = dose: 25.0 mg/kg/injection, schedule: Q04DX003 (ip), vehicle: saline with Tween-80
[24] = dose: 50.0 mg/kg/injection, schedule: Q04DX003 (ip), vehicle: saline with Tween-80
[25] = dose: 200.0 mg/kg/injection, schedule: Q01DX005 (ip), vehicle: saline with Tween-80

Measured: T/C

CCCC(=O)NC1=C(N2CC2)C(=O)C(NC(=O)CCC)=C(N2CC2)C1=O
active: dose: 1.0 mg/kg/injection, schedule: Q01DX009 (ip), vehicle: saline with Tween-80 157 % of control | dose: 1.56 mg/kg/injection, schedule: Q01DX009 (ip), vehicle: saline with Tween-80 181 % of control | dose: 2.5 mg/kg/injection, schedule: Q04DX003 (ip), vehicle: saline with Tween-80 159 % of control | dose: 3.13 mg/kg/injection, schedule: Q04DX003 (ip), vehicle: saline with Tween-80 154 % of control | dose: 5.0 mg/kg/injection, schedule: Q04DX003 (ip), vehicle: saline with Tween-80 200 % of control | dose: 6.25 mg/kg/injection, schedule: Q04DX003 (ip), vehicle: saline with Tween-80 227 % of control
inactive: dose: 0.13 mg/kg/injection, schedule: Q01DX009 (ip), vehicle: saline with Tween-80 120 % of control | dose: 0.2 mg/kg/injection, schedule: Q01DX009 (ip), vehicle: saline with Tween-80 118 % of control | dose: 0.44 mg/kg/injection, schedule: Q01DX009 (ip), vehicle: saline with Tween-80 112 % of control | [1] 86 % of control | [2] 104 % of control

O=S=C(c1ccccc1)N(Cc1ccccc1)Cc1ccccc1
inactive: [3] 96 % of control | [4] 97 % of control | [5] 97 % of control

CCOC(=O)c1cn(CC)c2cc(-n3cccc3)ccc2c1=O
inactive: [6] 93 % of control | [7] 98 % of control | [8] 92 % of control

O=C1C2=C(Nc3cc([N+](=O)[O-])ccc3N2)OC1c1cccc([N+](=O)[O-])c1 (centres undefined)
inactive: [9] 97 % of control | [10] 96 % of control | dose: 240.0 mg/kg/injection, schedule: Q01DX005 (ip), vehicle: Klucel (hydroxypropylcellulose) (HPC) 102 % of control

COc1cccc(C(c2cc3c(cc2O)OCO3)N2CCOCC2)c1O (centres undefined)
inactive: [6] 114 % of control (2×) and 116 % of control | [7] 108 % of control and 116 % of control and 122 % of control | [8] 109 % of control and 112 % of control | dose: 480.0 mg/kg/injection, schedule: Q01DX005 (ip), vehicle: saline with Tween-80 118 % of control

CC(=O)OC1C=CCC2C(=O)C34CC=CC(OC(C)=O)C3(C(=O)c3ccccc3C4=O)C(=O)C12 (centres undefined)
inactive: [1] 103 % of control | [11] 101 % of control | [12] 120 % of control | [13] 116 % of control | [14] 116 % of control

CC(C)(C)OC(=O)O/N=C(\C#N)c1ccccc1
inactive: [11] 90 % of control | [12] 104 % of control | [13] 100 % of control and 103 % of control | [15] 100 % of control

[CH3][Sn]([CH3])([Br])[Br].c1ccc(-c2nnc(-c3ccccn3)nc2-c2ccccc2)cc1
inactive: dose: 30.0 mg/kg/injection, schedule: Q01DX005 (ip), vehicle: Klucel (hydroxypropylcellulose) (HPC) 107 % of control | [9] 113 % of control and 95 % of control | [10] 100 % of control and 106 % of control

CCOC(=O)C(N)CSC (centres undefined)
inactive: dose: 50.0 mg/kg/injection, schedule: Q01DX009 (ip), vehicle: water 97 % of control | dose: 200.0 mg/kg/injection, schedule: Q01DX009 (ip), vehicle: water 103 % of control | dose: 400.0 mg/kg/injection, schedule: Q01DX009 (ip), vehicle: water 106 % of control

Fc1ccccc1C(Nc1nc2ccccc2s1)Nc1nc2ccccc2s1
inactive: dose: 50.0 mg/kg/injection, schedule: Q01DX005 (ip), vehicle: Klucel (hydroxypropylcellulose) (HPC) 109 % of control | dose: 100.0 mg/kg/injection, schedule: Q01DX005 (ip), vehicle: Klucel (hydroxypropylcellulose) (HPC) 104 % of control | dose: 200.0 mg/kg/injection, schedule: Q01DX005 (ip), vehicle: Klucel (hydroxypropylcellulose) (HPC) 113 % of control

C=Cc1cc(=O)oc2cc(OC)ccc12
inactive: dose: 12.5 mg/kg/injection, schedule: Q01DX005 (ip), vehicle: saline with Tween-80 106 % of control and 94 % of control | dose: 25.0 mg/kg/injection, schedule: Q01DX005 (ip), vehicle: saline with Tween-80 108 % of control and 95 % of control | [16] 105 % of control and 115 % of control and 121 % of control | [17] 105 % of control

Nc1cc(=O)[nH]c(O)c1C(=O)O
inactive: [12] 95 % of control

O=c1oc2ccccc2cc1S(=O)(=O)c1ccc(Cl)cc1
inactive: [6] 91 % of control | [7] 92 % of control | [8] 91 % of control

CCN(CC)CCNC(=S)NNc1nc(C)ccc1[N+](=O)[O-]
inactive: [18] 99 % of control | [19] 95 % of control | [20] 87 % of control and 97 % of control

O=C1C=CC(O)C2OC12 (centres undefined)
inactive: dose: 5.0 mg/kg/injection, schedule: Q04DX002 (ip), vehicle: saline 111 % of control | dose: 10.0 mg/kg/injection, schedule: Q04DX002 (ip), vehicle: saline 113 % of control

COc1cccc(OC)c1[N+](=O)[O-]
inactive: [13] 87 % of control | [14] 97 % of control | [15] 106 % of control

CCCCC1(CN(C)C)C(=O)N(C)C(=O)N(C2CCCCC2)C1=O (centres undefined)
inactive: [13] 100 % of control | [14] 102 % of control | [15] 99 % of control

CCC(C)(C)N=C(NC(=O)C(F)(F)F)Nc1cccnc1
inactive: [21] 93 % of control | dose: 200.0 mg/kg/injection, schedule: Q04DX003 (ip), vehicle: saline with Tween-80 94 % of control

Cc1cnc(N)c(S(=O)(=O)O)c1
inactive: [3] 86 % of control | [4] 88 % of control

CCON(C=Nc1ccc(Cl)c(Cl)c1)c1ccc(Cl)c(Cl)c1
inactive: [4] 103 % of control | [5] 102 % of control | [22] 91 % of control

O=C(c1ccccc1)N1CC2CCC1CN2C(=O)c1ccccc1
inactive: dose: 12.5 mg/kg/injection, schedule: Q01DX009 (ip), vehicle: other 105 % of control | dose: 25.0 mg/kg/injection, schedule: Q01DX009 (ip), vehicle: other 105 % of control | dose: 50.0 mg/kg/injection, schedule: Q01DX009 (ip), vehicle: other 100 % of control | dose: 100.0 mg/kg/injection, schedule: Q01DX009 (ip), vehicle: other 100 % of control | dose: 200.0 mg/kg/injection, schedule: Q01DX009 (ip), vehicle: other 105 % of control

C=C(C)C(=O)OCCn1c(=O)c2c(ncn2C)n(C)c1=O
inactive: [6] 96 % of control | [7] 101 % of control | [8] 92 % of control

S=P(C1CCCCC1)(C1CCCCC1)C(c1cccnc1)N1CCCC1 (centres undefined)
inactive: [4] 104 % of control | [5] 94 % of control | [22] 87 % of control

CC(=O)OC1(c2ccccc2)CCN(C)CC1C(=O)c1ccccc1 (centres undefined)
inactive: dose: 50.0 mg/kg/injection, schedule: Q01DX005 (ip), vehicle: saline 109 % of control | dose: 100.0 mg/kg/injection, schedule: Q01DX005 (ip), vehicle: saline 116 % of control

COC1OC2COC(c3ccccc3)OC2C(O)C1N (centres undefined)
inactive: [12] 112 % of control | [23] 100 % of control | [13] 95 % of control | [24] 100 % of control | [14] 104 % of control | [21] 100 % of control

Cc1cc(NC(=O)c2ccc(NC(=O)c3ccc(N)cc3)cc2)ccc1N=Nc1ccc2c(O)c(N=Nc3ccc4cc(S(=O)(=O)O)ccc4c3)c(S(=O)(=O)O)cc2c1
inactive: [16] 94 % of control | [17] 103 % of control | [25] 94 % of control

OC1(c2ccccc2C(O)(C(F)(F)F)C(F)(F)F)OC(C(F)(F)F)(C(F)(F)F)c2ccccc21 (centres undefined)
inactive: [18] 101 % of control | [19] 99 % of control | [20] 99 % of control

O=C(/C=C/c1ccc2c(c1)OCO2)c1cc(Cl)ccc1O
inactive: [16] 93 % of control | [17] 98 % of control | [25] 102 % of control

CC(C)C(C=O)C(O)(C(F)(F)F)C(F)(F)Cl (centres undefined)
inactive: [2] 100 % of control | [23] 90 % of control | [24] 95 % of control
